From ChEMBL document CHEMBL4725246, “Design, synthesis, and evaluation of a novel macrocyclic anti-EV71 agent” (Bioorg Med Chem, 2020)

Experiments:
Enterovirus A71 [1] = experiment: Antiviral activity against Enterovirus A71 SK-EV006 measured after 3 to 4 days by cell based assay; assay type: functional, organism-based; conditions: Enterovirus A
Enterovirus A71 [2] = experiment: Antiviral activity against Enterovirus A71 Shenzhen/120F1/09 infected in human RD cells assessed as […] measured after 72 hrs post-infection by CCK-8 assay; assay type: functional, organism-based; conditions: Enterovirus A, Shenzhen/120F1/09, RD
[3] = Stability in CD-1 mouse plasma assessed as parent compound remaining upto 120 mins by LC-MS analysis; assay type: ADME, cell-free; conditions: read-out: Stabilty

| SMILES | EC50 (Enterovirus A71 [1]) | EC50 (Enterovirus A71 [2]) | remaining at 2 h [3] |
| --- | --- | --- | --- |
| Cc1cc(C(=O)N[C@@H](Cc2ccc(F)cc2)C(=O)N[C@H](C=O)C[C@@H]2CCCNC2=O)no1 | 108 nM |  |  |
| Cc1cc(C(=O)N[C@H](C(=O)NC2C(=O)N[C@@H](CC3CCNC3=O)/C=C/C(=O)OC/C=C/CCOC2c2ccccc2)C(C)C)no1 (stereo partly drawn) |  | 4500 nM | 5.6% |
